How the values were obtained:
GsAK = GsAK (Geobacillus stearothermophilus, UniProt P27142); assay: microscale thermophoresis, amine-labelled protein; type: binding
BsAK = BsAK (Bacillus subtilis, UniProt P16304); assay: microscale thermophoresis, amine-labelled protein; type: binding
Chain of BsAK (P16304 whole entry): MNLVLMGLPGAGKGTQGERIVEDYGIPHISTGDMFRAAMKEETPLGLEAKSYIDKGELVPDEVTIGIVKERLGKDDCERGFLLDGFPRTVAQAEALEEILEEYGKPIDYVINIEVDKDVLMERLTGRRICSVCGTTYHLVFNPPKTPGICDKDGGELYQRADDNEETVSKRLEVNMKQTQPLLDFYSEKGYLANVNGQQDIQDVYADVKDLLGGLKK

Chain of GsAK (P27142 whole entry): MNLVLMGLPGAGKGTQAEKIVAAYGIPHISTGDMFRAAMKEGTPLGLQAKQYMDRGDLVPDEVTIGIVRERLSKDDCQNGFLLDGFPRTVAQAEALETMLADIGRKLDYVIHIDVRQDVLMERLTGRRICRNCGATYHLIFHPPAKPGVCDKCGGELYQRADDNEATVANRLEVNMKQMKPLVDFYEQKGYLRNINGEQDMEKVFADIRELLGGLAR

Kd (GsAK): 17 ± 5.7 nM | Kd (BsAK): 25.1 ± 1.1 nM
Structure (SMILES): Nc1ncnc2c1ncn2[C@@H]1O[C@H](COP(=O)(O)OP(=O)(O)OP(=O)(O)OP(=O)(O)OP(=O)(O)OC[C@H]2O[C@@H](n3cnc4c(N)ncnc43)[C@H](O)[C@@H]2O)[C@@H](O)[C@H]1O [Ap5A]

Source: doi:10.1101/2023.10.25.564053v1 (biorxiv, 2023)
